Data: patent US7244730B2, “2-iminopyrrolidine derivatives” (Eisai Co., Ltd, priority 2001, dated 2007)
Structures can show the parent of a compound that is named as a salt.

Tests used:
thrombin receptor = biological target: T1, thrombin receptor (Homo sapiens, UniProt P25116); assay: Receptor binding assay ([3H] high affinity TRAP, platelet membrane); settings: platelet membrane of healthy adult; 25 nM [3H] high affinity TRAP; 37° C., 1 hour; read-out: RBA IC50
T1 construct: centrifuged at 40,000 g for 60 minutes to yield platelet membrane; from tissue; host or cells: platelet membrane prepared from donor blood (platelet rich plasma)
T1 sequence (P25116 22-425): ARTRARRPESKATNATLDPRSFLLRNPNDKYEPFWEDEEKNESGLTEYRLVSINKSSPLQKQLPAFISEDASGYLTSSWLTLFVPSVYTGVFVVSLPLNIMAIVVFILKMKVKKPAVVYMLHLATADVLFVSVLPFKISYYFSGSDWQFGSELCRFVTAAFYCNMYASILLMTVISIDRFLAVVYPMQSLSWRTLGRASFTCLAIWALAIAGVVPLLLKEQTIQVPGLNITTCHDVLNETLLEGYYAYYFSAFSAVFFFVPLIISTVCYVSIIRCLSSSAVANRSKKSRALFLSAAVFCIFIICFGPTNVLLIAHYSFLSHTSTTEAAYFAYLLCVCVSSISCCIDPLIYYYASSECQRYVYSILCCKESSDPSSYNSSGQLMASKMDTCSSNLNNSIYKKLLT
Protocol: Blood was sampled from a healthy adult who had taken no drugs for one week, and 3.8% citric acid (a ratio of 1:9 with respect to the blood) was added as an anticoagulant. The mixture was then centrifuged at 100 g for 10 minutes at room temperature to yield platelet rich plasma (PRP). The platelet precipitate obtained by centrifuging the PRP was homogenized with a Dounce homogenizer, and then centrifuged at 40,000 g for 60 minutes to yield platelet membrane. The platelet membrane was suspended in a solution prepared by adding DMSO (dimethyl sulfoxide) at 1% concentration to Buffer 1: a 50 mM Tris-HCl buffer containing 10 mM MgCl2 and 1 mM EGTA (ethylene glycol tetraacetic acid), and the suspension was stored at −80° C. Bovine albumin and DMSO were added to Buffer 1 at 0.1% and 20%, respectively, to make preparation solutions for the test compound. The test compounds (20 μl) diluted at various concentrations with the preparation solutions were added to a 96-well multiscreen plate. […] After then adding 100 μl of the previously prepared platelet membrane suspension (0.4 mg/ml) and mixing, incubation was performed at 37° C. for 1 hour. The reaction mixture was suction filtered and then rinsed 3 times with 200 μl of Buffer 1. Next, 30 μl of liquid scintillator was added for measurement of the radioactivity of the plate using a Top Counter (Packard), the value of the radioactivity in the presence of the test compound minus non-specific binding portion was divided by the specific binding value (the value of the binding in the absence of the compound minus the non-specific binding portion) to determine the binding ratio, from which the IC50 value was calculated. The non-specific binding was the value obtained with addition of 10 μM of high affinity TRAP.

[1] = tested on: platelet rich plasma (PRP), thrombin-induced platelet aggregation; assay: Inhibitory effects on platelet aggregation using platelet rich plasma; format: cell-based; settings: Homo sapiens, 0.1 h, PRP of healthy adult, aggregation initiated with thrombin (0.5–1.5 units/ml), area under aggregation curve, 6 minutes, read-out: Thr IC50
Protocol: [Inhibitory Effects on Platelet Aggregation Using Platelet Rich Plasma]
Blood was sampled from a healthy adult who had taken no drugs for one week, and 3.8% citric acid (a ratio of 1:9 with respect to the blood) was added as an anticoagulant. The mixture was then centrifuged at 100 g for 10 minutes at room temperature to yield platelet rich plasma (PRP). The PRP-removed blood was further centrifuged at 1000 g for 10 minutes to yield platelet poor plasma (PPP). The number of platelet was counted using a multi-parameter automatic hemocyte counter (K4500, Sysmex), and the PRP was diluted to approximately 300,000/μl with the PPP. The platelet aggregation activity was determined in the following manner using an Aggregometer (MC Medical). GPRP-NH2 (final concentration 1 mM, 25 μl) was added as a fibrin polymerization inhibitor to the PRP (175 μl), after which Ca-free Tyrode solution (control) or the test compound suspension (25 μl) at different concentrations was added, incubation was performed at 37° C. for 3 minutes and then 25 μl of thrombin at the minimum concentration required to produce maximum aggregation (final concentration: optimum concentration among 0.5–1.5 units/ml) was added, for initiation of platelet aggregation. PRP and Ca-free Tyrode solution (control) or the preparation solutions at various concentrations were pre-incubated at 37° C. for 60 minutes, prior to the platelet aggregation reaction in some experiments. After addition of thrombin, the aggregation reaction was examined for 6 minutes and the areas under the aggregation curves were compared to determine the inhibition ratio, from which the IC50 value was calculated.

[2] = tested on: Vascular smooth muscle cells (rSMC); assay: Rat smooth muscle cell proliferation assay; format: cell-based; settings: 48 h; male SD rat aorta rSMC; thrombin 0.1 unit/ml; 2 days; MTT, OD 590 nm; read-out: Rat SMC IC50
Protocol: [Rat Smooth Muscle Cell Proliferation Assay]
Vascular smooth muscle cells (rSMC) were isolated from male SD rat aorta by the explant method. DMEM medium (Sigma) containing 10% fetal bovine serum (GibcoBRL), streptomycin and penicillin was used as the proliferation medium, and subculture was carried out at 37° C. in the presence of 5% CO2. Culture was initiated after adding 100 μl of rSMC suspension in proliferation medium at a concentration of 1×10^4 cells/ml, to a 96-well plate. After 3 days, cells were rinsed twice with 100 μl of DMEM medium, the medium was exchanged with 100 μl of DMEM medium containing 0.1% albumin (starvation medium), and serum starvation was initiated. The medium was exchanged two days after the serum starvation, 80 μl of starvation medium and 10 μl of the test compound diluted to different concentrations with the starvation medium were added, and then 10 μl of thrombin dissolved in the starvation medium (final concentration: 0.1 unit/ml) was added prior to further incubation for 2 days.
Upon adding 20 μl of MTT (3-[4,5-dimethylthiazol-2-yl]-2,5-diphenyltetrazolium bromide) dissolved in DPBS to 7.5 mg/ml, incubation was continued for 4 hours. The medium was removed by suction, 50 μl of a 10% SDS/0.029% ammonia solution was added, and the mixture was allowed to stand for 2 hours in a CO2 incubator for complete lysis of the cells. As an index of cell proliferation, the OD 590 nm was measured using a plate reader (EL340, BIO-TEK Instruments Inc.), and the control OD value (OD value in the absence of the test compound) minus the OD value in the presence of the test compound was divided by the control OD value minus the blank OD value (OD value without thrombin stimulation) to determine the inhibition ratio, from which the IC50 value was calculated.

CCOc1cc2c(cc1C(=O)NC)C(=N)N(CC(=O)c1cc(OCC)c(O)c(C(C)(C)C)c1)C2 [Example 109, 2-[2-(3-tert-Butyl-5-ethoxy-4-hydroxy-phenyl)-2-oxo-ethyl]-6-ethoxy-3-imino-2,3-dihydro-1H-isoindole-5-carboxylic acid methylamide hydrobromide]
IC50 (thrombin receptor): 0.03 µM
IC50 [1]: 0.012 µM
IC50 [2]: 0.042 µM

CCOc1cc2c(c(F)c1OCC)C(=N)N(CC(=O)c1cc(N3CCNCC3)c(OC)c(C(C)(C)C)c1)C2 [Example 112, 1-(3-tert-Butyl-4-methoxy-5-piperazin-1-yl-phenyl)-2-(5,6-diethoxy-7-fluoro-1-imino-1,3-dihydro-isoindol-2-yl)-ethanone dihydrochloride]
IC50 (thrombin receptor): 0.03 µM
IC50 [1]: 0.028 µM
IC50 [2]: 0.052 µM

CCOc1cc2c(c(F)c1OCC)C(=N)N(CC(=O)c1cc(N3CCN(CC(=O)O)CC3)c(OC)c(C(C)(C)C)c1)C2 [Example 127, (4-{3-tert-Butyl-5-[2-(5,6-diethoxy-7-fluoro-1-imino-1,3-dihydro-isoindol-2-yl)-acetyl]-2-methoxy-phenyl}-piperazin-1-yl)-acetic acid dihydrochloride]
IC50 (thrombin receptor): 0.017 µM
IC50 [1]: 0.021 µM
IC50 [2]: 0.15 µM
